In series [1] the target is T1, P-gp (Homo sapiens, UniProt P08183).
T1 construct: expressed in transfected cells; host or cells: MDCK-MDR1 (Madin-Darby Canine Kidney cells, gift of Prof. P. Borst, NKI-AVL)
As to the kind of experiment: Inhibition of Calcein-AM transport in MDCK-MDR1 cells. It counts as cell-based. Particulars: Calcein-AM, MDCK-MDR1 cells; mean ± SEM of two experiments. Here is the method: These experiments were carried out as previously described by Teodori et al. with minor modifications. Each cell line (30 000 cells per well) was seeded into black CulturePlate 96/wells plate with 100 µL medium and allowed to become confluent overnight. 100 µL of test compounds were solubilised in culture medium and added to monolayers, with final concentrations ranging from 1 nM to 100 µM. 96/Wells plate was incubated for 30 min in a humidified atmosphere 5% CO2 at 37 °C. Calcein-AM was added in 100 µL of Phosphate Buffered Saline (PBS) to yield a final concentration of 2.5 µM and plate was incubated for 30 min in a humidified atmosphere 5% CO2 at 37 °C. Each well was washed 3 times with ice cold PBS. Saline buffer was added to each well and the plate was read with Victor3 (PerkinElmer) at excitation and emission wavelengths of 485 and 535 nm, respectively. In these experimental conditions, Calcein cell accumulation in the absence and in the presence of tested compounds was evaluated and fluorescence basal level was estimated with untreated cells. In treated wells the increase of fluorescence with respect to basal level was measured. EC50 values were determined by fitting the fluorescence increase percentage versus log[dose].
The interaction potency between the designed compounds and P-gp was evaluated by measuring the transport inhibition of the pro-fluorescent probe Calcein-AM, that is a P-gp substrate, in a cell line overexpressing P-gp (MDCK-MDR1)[47]. The P-gp interacting profile was further investigated with two other assays: the Apparent Permeability (Papp) determination (BA/AB) in Caco-2 cell monolayer[48]^,[49], and the ATP cell depletion in the MDCK-MDR1 cell line[50]. […] Papp determination measures the ratio between two fluxes: from the basolateral to apical compartments (BA, representative of passive diffusion) and from the apical to basolateral compartments (AB, representative of active transport). […] In the same manner, if (BA/AB) >2, the compound should probably be classified as a substrate.

Series [2] is described as follows: Apparent permeability (Papp) determination (BA/AB) in Caco-2 cell monolayer. It counts as in vitro ADME. Particulars: human, Caco-2 monolayer. Here is the method:
Caco-2 cells were seeded onto a Millicell® assay system (Millipore), where a cell monolayer is set in between a filter cell and a receiver plate, at a density of 10 000 cells/well[46]. The culture medium was replaced every 48 h and the cells kept for 21 days in culture. The Trans Epithelial Electrical Resistance (TEER) of the monolayers was measured daily, before and after the experiment, using an epithelial volt-ohmmeter (Millicell®-ERS). Generally, TEER values greater than 1000 Ω for a 21 days culture, are considered optimal.
After 21 days of Caco-2 cell growth, the medium was removed from filter wells and from the receiver plate, which were filled with fresh HBSS buffer (Invitrogen). This procedure was repeated twice, and the plates were incubated at 37 °C for 30 min. After incubation time, the HBSS buffer was removed and drug solutions and reference compounds were added to the filter well at the concentration of 100 µM, while fresh HBSS was added to the receiver plate. The plates were incubated at 37 °C for 120 min. Afterwards, samples were removed from the apical (filter well) and basolateral (receiver plate) side of the monolayer to measure the permeability.
(§1) The interaction potency between the designed compounds and P-gp was evaluated by measuring the transport inhibition of the pro-fluorescent probe Calcein-AM, that is a P-gp substrate, in a cell line overexpressing P-gp (MDCK-MDR1)[47]. The P-gp interacting profile was further investigated with two other assays: the Apparent Permeability (Papp) determination (BA/AB) in Caco-2 cell monolayer[48]^,[49], and the ATP cell depletion in the MDCK-MDR1 cell line[50]. Taking into account the results of the combined tests, an interacting compound can be classified as substrate or inhibitor. Papp determination measures the ratio between two fluxes: from the basolateral to apical compartments (BA, representative of passive diffusion) and from the apical to basolateral compartments (AB, representative of active transport). […] In the same manner, if (BA/AB) >2, the compound should probably be classified as a substrate. […] The selectivity of ligands 1–26 was evaluated by detecting their activity towards the other ABC transporters MRP1 and BCRP, by measuring the inhibition of the efflux of Calcein-AM (i.e., also a MRP1 substrate) in cells overexpressing MRP1 (MDCK-MRP1 cells), and the inhibition of the efflux of the fluorescent probe Hoechst 33342 (i.e. a BCRP substrate) in cells overexpressing BCRP (MDCK-BCRP cells), respectively.

A short description of series [3]: Stability test in human plasma (LC-MS/MS). As to conditions: human plasma; for half-life at 1 µM: human, 37 °C. It counts as in vitro ADME. Here is the method: Each sample was prepared adding 10 µL of working solution 1 to 100 µL of tested matrix (PBS or human plasma) in micro centrifuge tubes. The obtained solutions correspond to 1 µM of analyte.
After the incubation, the samples were added with 300 µL of ISTD solution and centrifuged (room temperature for 5 min at 10,000 rpm). The supernatants were transferred in auto sampler vials and dried under a gentle stream of nitrogen.
The dried samples were dissolved in 1.0 ml of 10 mM of formic acid in mQ water: acetonitrile 80:20 solution. The obtained sample solutions were analysed by LC-MS/MS methods described in Supplementary material.
For this purpose, a series of experiments were carried out, adding a known amount of analyte in both phosphate buffer solution (PBS) and in human plasma. The samples were analysed by LC-MS/MS method operating in Multiple Reaction Monitoring (MRM) mode[55].
The analyte concentration (1 µM) used during the stability tests is generally smaller than the corresponding Michaelis–Menten constant (KM); therefore, the enzymatic degradation rate is described by a first-order kinetic. Then, by plotting the natural logarithm of the quantitative data versus the incubation time, a linear function can be used and its slope represents the degradation rate (k).

Series [4] deals with T1, P-gp. As to the kind of experiment: ATP cell depletion (ATPlite assay) in MDCK-MDR1 cells. As to conditions: Yes/No. The format is cell-based. Here is the method:
The MDCK-MDR1 cells were seeded into 96-well microplate in 100 µL of complete medium at a density 20,000 cells per well. The plate was incubated overnight (O/N) in a humidified atmosphere 5% CO2 at 37 °C. The medium was removed and 100 µL of complete medium either alone or containing different concentrations (ranging from 1 to 100 µM) of test compounds was added. The plate was incubated for 2 h in a humidified 5% CO2 atmosphere at 37 °C. 50 µL of mammalian cell lysis solution was added to all wells and the plate shacked for five minutes in an orbital shaker. 50 µL of substrate solution was added to all wells and the plate shacked for five minutes in an orbital shaker. The plate was dark adapted for ten minutes and the luminescence was measured.
as §1

T1 sequence (P08183 whole entry): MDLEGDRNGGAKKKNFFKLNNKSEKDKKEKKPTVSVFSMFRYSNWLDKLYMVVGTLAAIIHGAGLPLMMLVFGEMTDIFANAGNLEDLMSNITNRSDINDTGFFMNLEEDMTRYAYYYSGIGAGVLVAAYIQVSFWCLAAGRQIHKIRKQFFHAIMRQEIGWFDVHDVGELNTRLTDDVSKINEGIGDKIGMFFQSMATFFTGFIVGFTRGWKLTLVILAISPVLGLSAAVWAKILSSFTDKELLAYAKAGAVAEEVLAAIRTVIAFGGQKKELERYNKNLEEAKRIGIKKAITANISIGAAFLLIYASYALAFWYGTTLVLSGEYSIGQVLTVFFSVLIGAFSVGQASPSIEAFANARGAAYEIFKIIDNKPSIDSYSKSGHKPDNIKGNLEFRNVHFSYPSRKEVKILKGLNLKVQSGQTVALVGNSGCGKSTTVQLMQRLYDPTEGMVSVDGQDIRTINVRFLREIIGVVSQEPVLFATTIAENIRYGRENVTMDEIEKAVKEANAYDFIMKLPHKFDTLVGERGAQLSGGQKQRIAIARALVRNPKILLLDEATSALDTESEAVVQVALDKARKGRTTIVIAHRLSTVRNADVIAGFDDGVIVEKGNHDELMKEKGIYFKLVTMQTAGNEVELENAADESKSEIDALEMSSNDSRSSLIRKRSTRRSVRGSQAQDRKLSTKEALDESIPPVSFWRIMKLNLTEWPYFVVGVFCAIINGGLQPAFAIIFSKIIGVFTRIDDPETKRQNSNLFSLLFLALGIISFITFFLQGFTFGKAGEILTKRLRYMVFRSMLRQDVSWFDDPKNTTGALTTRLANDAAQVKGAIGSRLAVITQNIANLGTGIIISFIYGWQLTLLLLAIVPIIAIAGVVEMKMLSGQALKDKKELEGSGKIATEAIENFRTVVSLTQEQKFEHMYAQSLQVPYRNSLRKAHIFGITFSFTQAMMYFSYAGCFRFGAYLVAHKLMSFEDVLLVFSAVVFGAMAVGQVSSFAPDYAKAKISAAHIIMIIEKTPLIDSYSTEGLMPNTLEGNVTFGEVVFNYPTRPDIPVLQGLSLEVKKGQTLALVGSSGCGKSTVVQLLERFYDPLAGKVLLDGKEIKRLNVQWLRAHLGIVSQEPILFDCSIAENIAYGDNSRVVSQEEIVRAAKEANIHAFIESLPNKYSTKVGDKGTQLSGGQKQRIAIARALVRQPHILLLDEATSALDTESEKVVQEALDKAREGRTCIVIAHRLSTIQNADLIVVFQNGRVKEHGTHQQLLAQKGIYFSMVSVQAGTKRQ

Regarding `COc1cc2c(cc1OC)CN(CCc1ccc(OC(=O)c3c(OC)cccc3OC)cc1)CC2` [Compound 17, 4–(2-(6,7-Dimethoxy-3,4-dihydroisoquinolin-2(1H)-yl)ethyl)phenyl 2,6-dimethoxybenzoate], the EC50 at P-gp [1] is 0.15 ± 0.03 µM. In addition, the efflux ratio at 120 min, 100 µM in series [2] was 6.2. For the same molecule, the half-life at 1 µM in series [3] was no less than 4 h. Besides, the ATP cell depletion result at P-gp [4] is “No”.
For `COc1cc2c(cc1OC)CN(CCc1ccc(OC(=O)c3cccnc3)cc1)CC2` [Compound 22, 4–(2-(6,7-Dimethoxy-3,4-dihydroisoquinolin-2(1H)-yl)ethyl)phenyl nicotinate], the EC50 at P-gp [1] was 29.4 ± 4.98 µM. In addition, in series [2], the efflux ratio at 120 min, 100 µM was 5. The same molecule had a half-life at 1 µM in series [3] of no less than 4 h. Moreover, at P-gp [4], the ATP cell depletion result was “No”.
Turning to `COc1cc2c(cc1OC)CN(CCc1ccc(NC(=O)c3cccc4ccccc34)cc1)CC2` [Compound 6, N-(4–(2-(6,7-dimethoxy-3,4-dihydroisoquinolin-2(1H)-yl)ethyl)phenyl)-1-naphthamide], at P-gp [1], the EC50 is 0.67 ± 0.12 µM. Moreover, the efflux ratio at 120 min, 100 µM in series [2] is 3.6. In series [3], this molecule yielded a half-life at 1 µM of no less than 4 h. In addition, the ATP cell depletion entry on P-gp [4] is “No”.
The corresponding values for `COc1cc2c(cc1OC)CN(CCc1ccc(NC(=O)c3ccccc3OC)cc1)CC2` [Compound 2, N-(4–(2-(6,7-dimethoxy-3,4-dihydroisoquinolin-2(1H)-yl)ethyl)phenyl)-2-methoxybenzamide] are 0.44 ± 0.082 µM, 5.9, no less than 4 h and “No”.
Consider `COc1ccc(C(=O)Oc2ccc(CCN3CCc4cc(OC)c(OC)cc4C3)cc2)cn1` [Compound 23, 4–(2-(6,7-Dimethoxy-3,4-dihydroisoquinolin-2(1H)-yl)ethyl)phenyl 6-methoxynicotinate], for which the EC50 on P-gp [1] is 9.24 ± 1.81 µM. Besides, the efflux ratio at 120 min, 100 µM in series [2] was determined as 5.6. This molecule had a half-life at 1 µM in series [3] of no less than 4 h. Also, the ATP cell depletion result at P-gp [4] is on record as “No”.
In the case of `COc1cc2c(cc1OC)CN(CCc1ccc(NC(=O)c3cnccn3)cc1)CC2` [Compound 11, N-(4–(2-(6,7-dimethoxy-3,4-dihydroisoquinolin-2(1H)-yl)ethyl)phenyl)pyrazine-2-carboxamide], the EC50 on P-gp [1] was 1.9 ± 0.32 µM. Moreover, the efflux ratio at 120 min, 100 µM in series [2] stood at 4.9. Moreover, the half-life at 1 µM in series [3] was no less than 4 h. Also, the ATP cell depletion result at P-gp [4] was “No”.
In the case of `COc1ccc2nccc(C(=O)Nc3ccc(CCN4CCc5cc(OC)c(OC)cc5C4)cc3)c2c1` [Compound 13, N-(4–(2-(6,7-dimethoxy-3,4-dihydroisoquinolin-2(1H)-yl)ethyl)phenyl)-6-methoxyquinoline-4-carboxamide], the EC50 at P-gp [1] is 0.66 ± 0.13 µM. For the same molecule, in series [2], the efflux ratio at 120 min, 100 µM was 6.5. In addition, in series [3], the half-life at 1 µM was no less than 4 h. Moreover, at P-gp [4], the ATP cell depletion entry is given as “No”.
Take `COc1cc2c(cc1OC)CN(CCc1ccc(NC(=O)c3c(OC)ccc4ccccc34)cc1)CC2` [Compound 7, N-(4–(2-(6,7-dimethoxy-3,4-dihydroisoquinolin-2(1H)-yl)ethyl)phenyl)-2-methoxy-1-naphthamide]: the EC50 on P-gp [1] is 0.12 ± 0.022 µM. Moreover, in series [2], the efflux ratio at 120 min, 100 µM was 11.8. The half-life at 1 µM in series [3] is no less than 4 h. In addition, at P-gp [4], the ATP cell depletion result is listed as “No”.
On the same counts, the results for `COc1cc2c(cc1OC)CN(CCc1ccc(NC(=O)c3c(OC)cccc3OC)cc1)CC2` [Compound 4, N-(4–(2-(6,7-dimethoxy-3,4-dihydroisoquinolin-2(1H)-yl)ethyl)phenyl)-2,6-dimethoxybenzamide] are 7.2 ± 1.39 µM, 5.5, no less than 4 h and “No”.
On the same counts, the results for `COc1ccc2nccc(C(=O)Oc3ccc(CCN4CCc5cc(OC)c(OC)cc5C4)cc3)c2c1` [Compound 26, 4–(2-(6,7-Dimethoxy-3,4-dihydroisoquinolin-2(1H)-yl)ethyl)phenyl 6-methoxyquinoline-4-carboxylate] are 1.4 ± 0.26 µM, 8.7, 2.07 ± 0.45 h and “No”.
`CCOC(=O)C(C)c1cccc(C(=O)c2ccccc2)c1` (stereo not drawn) [KEE, Ketoprofen ethyl ester, reference compound] returned a t1/2 in series [3] (reference compound for enzymatic activity of the batch) of less than 2 h.
Take `COc1cc2c(cc1OC)CN(CCc1ccc(NC(=O)c3cccnc3)cc1)CC2` [Compound 9, N-(4–(2-(6,7-dimethoxy-3,4-dihydroisoquinolin-2(1H)-yl)ethyl)phenyl)nicotinamide]: the EC50 at P-gp [1] is 6.4 ± 1.26 µM. Further, the efflux ratio at 120 min, 100 µM in series [2] is 7.3. This molecule gave a half-life at 1 µM in series [3] of no less than 4 h. Also, the ATP cell depletion result on P-gp [4] is “No”.
The corresponding values for `COc1cc2c(cc1OC)CN(CCc1ccc(OC(=O)c3cnccn3)cc1)CC2` [Compound 24, 4–(2-(6,7-Dimethoxy-3,4-dihydroisoquinolin-2(1H)-yl)ethyl)phenyl pyrazine-2-carboxylate] are 1.9 ± 0.32 µM, 4.9, 0.7 ± 0.333 h and “No”.
As to `COc1cc2c(cc1OC)CN(CCc1ccc(NC(=O)c3cccc4c(=O)c5cccc(OC)c5[nH]c34)cc1)CC2` [elacridar, reference compound], the ATP cell depletion result at P-gp [4] is on record as “Yes^g”.
`COc1ccc(C(=O)Nc2ccc(CCN3CCc4cc(OC)c(OC)cc4C3)cc2)cn1` [Compound 10, N-(4–(2-(6,7-dimethoxy-3,4-dihydroisoquinolin-2(1H)-yl)ethyl)phenyl)-6-methoxynicotinamide]: the EC50 at P-gp [1] was 2.3 ± 0.44 µM. Moreover, in series [2], the efflux ratio at 120 min, 100 µM was determined as 7.5. The molecule further displayed a half-life at 1 µM in series [3] of no less than 4 h. Besides, the ATP cell depletion entry on P-gp [4] is given as “No”.

The values are drawn from paper PMC7178819, “6,7-Dimethoxy-2-phenethyl-1,2,3,4-tetrahydroisoquinoline amides and corresponding ester isosteres as multidrug resistance reversers” (Journal of Enzyme Inhibition and Medicinal Chemistry, 2020).
